# Data: patent publication US11413273B2, “Prophylactic or therapeutic agent for pulmonary hypertension comprising unsaturated 5-membered heterocycle-containing compound” (TOHOKU UNIVERSITY, priority 2016, dated 2022)
# How the values were obtained:
# [1] = tested on: pulmonary artery smooth muscle cells derived from patients with idiopathic pulmonary arterial hypertension (IPAH-PASMCs); experiment: ability to suppress the proliferation of pulmonary artery smooth muscle cells from patients with pulmonary hypertension (MTT assay); assay type: cell-based, human; details: for day 2/day 0 cell number ratio (MTT cell viability): 48 hours, IPAH-PASMC line 1, 10% FBS control 1.40; for suppressive effect on the proliferation of pulmonary artery smooth muscle cells: same method as Example 1, data not shown
# Procedure: The following compounds were used to assess the abilities of these compounds to suppress the proliferation of pulmonary artery smooth muscle cells from patients with pulmonary hypertension (IPAH-PASMC line: 1)
# Those compounds were obtained by synthesis in the Faculty of Pharmaceutical Sciences, Tohoku University. Specifically, first, 66 μl each of pulmonary artery smooth muscle cells derived from patients with idiopathic pulmonary arterial hypertension (IPAH-PASMCs) suspended in a 10% FBS medium (DMEM supplemented with 10% FBS) were seeded in a 96-well plate at 50,000 cells/ml (day −1). 24 Hours after the cell seeding (the time point was defined as day 0), 33 μl each of 300 nM, 3 μM, and 15 μM solutions of CEL-1 to CEL-8, CEL-10, CEL-13 to CEL-15, and CEL-19 in 10% FBS containing 1% DMSO were added to the wells so that the final concentrations were 100 nM, 1 μM, and 5 μM, respectively. As a control, 33 μl of 10% FBS containing 1% DMSO was added in place of CEL-1 to CEL-8, CEL-10, CEL-13 to CEL-15, and CEL-19. On day 0 (immediately before the addition of each of CEL-1 to CEL-8, CEL-10, CEL-13 to CEL-15, and CEL-19), a cell viability was confirmed by performing CellTiter 96 (trademark) AQueous One Solution Cell Proliferation Assay, promega MTT assay. Further, 48 hours after the addition of each of CEL-1 to CEL-8, CEL-10, CEL-13 to CEL-15, and CEL-19 (day 2), the MTT assay was performed again to observe a change in cell viability. Thus, a cell proliferation-suppressing effect was assessed.
# In addition, in the case where R^2 in the general formula (I) represents an alkyl group, in order to explore an association between the length of the alkyl group and a pulmonary artery smooth muscle cell proliferation-suppressing effect, a test on an ability to suppress the proliferation of the pulmonary artery smooth muscle cells from patients with pulmonary hypertension (IPAH-PASMC line:1) was performed three times, and the lengths of alkyl groups of the respective compounds and the results of stimulation with the compounds at a concentration of 5 μM for 48 hours (averages of day 2/day 0 cell number ratios) were shown graphically. A Pearson's correlation test was performed on the lengths of the alkyl groups and the day 2/day 0 cell number ratios. As a result, a significant correlation was found with a P-value of 0.0298.
# [2] = biological target: zinc finger protein ZFC3H1 (Homo sapiens, UniProt O60293); details: Non-patent Literature 2; cited from earlier work
# [3] = tested on: transcription factor NF-κB; details: Non-patent Literature 2 and 3; cited from earlier work
# [4] = tested on: hypoxia-induced pulmonary hypertension mouse model; experiment: hypoxia-induced pulmonary hypertension mouse model; assay type: in vivo, C57BL/6 mice; details: 10 mg/kg/day continuous subcutaneous infusion
# Procedure: Next, the therapeutic effect of CEL-3 on pulmonary hypertension was assessed in vivo. Specifically, the influence of CEL-3 on a hypoxia-induced pulmonary hypertension mouse model was investigated. The pulmonary hypertension mouse model was generated by breeding 9-week-old male C57BL/6 mice (n=14) in a hypoxic chamber having an oxygen concentration of from 8% to 12%. Before being housed in the hypoxic chamber, the mice were implanted with an osmotic pump containing CEL-3 dissolved with 50% DMSO, and were administered CEL-3 at 10 mg/kg/day by continuous subcutaneous infusion. The Vehicle group was administered a DMSO solution at the same concentration with an osmotic pump. The mice were bred in the hypoxic chamber for 3 weeks and then sacrificed to measure a right ventricular systolic pressure (RVSP) with a pressure catheter 1.2F (Transonic Scisense, US). In addition, after formalin fixation, the right ventricle and the left ventricle were separated to measure a right ventricle/(left ventricle plus septum) weight ratio RV/[LV+S]). Then, the extent of pulmonary hypertension was assessed on the basis of those results. The body weights of the Vehicle group and the CEL-3 administration group before the test were each 25.6±0.3 g. In addition, the body weights of the Vehicle group and the CEL-3 administration group after the test were 24.2±0.8 g and 23.9±0.7 g, respectively.
# [5] = tested on: SU5416/hypoxia-induced pulmonary hypertension rat model; experiment: SU5416/hypoxia-induced pulmonary hypertension rat model; assay type: in vivo, Sprague-Dawley rats; details: 3 mg/kg intraperitoneally daily for 2 weeks
# Procedure: The pulmonary hypertension rat model was generated by: subcutaneously injecting 6-week-old male Sprague-Dawley rats ([…]) with SU5416 at 20 mg/kg; and then breeding the rats in a hypoxic chamber having an oxygen concentration of from 8% to 12% for 3 weeks followed by breeding the rats under normoxia for 2 weeks. After the hypoxic stimulation for 3 weeks, the rats were intraperitoneally injected with CEL-3 dissolved with 10% DMSO at 3 mg/kg daily for 2 weeks. The Vehicle group was intraperitoneally injected with a DMSO solution at the same concentration. The rats were treated with CEL-3 for 2 weeks and then sacrificed to measure a right ventricular systolic pressure (RVSP) with a pressure catheter 1.6F (Transonic Scisense, US). In addition, after formalin fixation, the right ventricle and the left ventricle were separated to measure a right ventricle/(left ventricle plus septum) weight ratio (RV/[LV+S]). Then, the extent of pulmonary hypertension was assessed on the basis of those results. The body weights of the Control group, the Vehicle group, and the CEL-3 administration group before the test were 160.8±1.7 g, 163.4±2.5 g, and 158.9±1.9 g, respectively. In addition, the body weights of the Control group, the Vehicle group, and the CEL-3 administration group after the test were 355.4±5.1 g, 264.91±9.3 g, and 260.0±11.1 g, respectively.
# [6] = tested on: pulmonary artery smooth muscle cells; details: previous report, Non-patent Literature 3; cited from earlier work
# [7] = final concentration 100 nm (so in the source)
# [8] = 3 weeks hypoxia, vs control group (FIG. 3)
# Sequence of zinc finger protein ZFC3H1 (O60293 whole entry): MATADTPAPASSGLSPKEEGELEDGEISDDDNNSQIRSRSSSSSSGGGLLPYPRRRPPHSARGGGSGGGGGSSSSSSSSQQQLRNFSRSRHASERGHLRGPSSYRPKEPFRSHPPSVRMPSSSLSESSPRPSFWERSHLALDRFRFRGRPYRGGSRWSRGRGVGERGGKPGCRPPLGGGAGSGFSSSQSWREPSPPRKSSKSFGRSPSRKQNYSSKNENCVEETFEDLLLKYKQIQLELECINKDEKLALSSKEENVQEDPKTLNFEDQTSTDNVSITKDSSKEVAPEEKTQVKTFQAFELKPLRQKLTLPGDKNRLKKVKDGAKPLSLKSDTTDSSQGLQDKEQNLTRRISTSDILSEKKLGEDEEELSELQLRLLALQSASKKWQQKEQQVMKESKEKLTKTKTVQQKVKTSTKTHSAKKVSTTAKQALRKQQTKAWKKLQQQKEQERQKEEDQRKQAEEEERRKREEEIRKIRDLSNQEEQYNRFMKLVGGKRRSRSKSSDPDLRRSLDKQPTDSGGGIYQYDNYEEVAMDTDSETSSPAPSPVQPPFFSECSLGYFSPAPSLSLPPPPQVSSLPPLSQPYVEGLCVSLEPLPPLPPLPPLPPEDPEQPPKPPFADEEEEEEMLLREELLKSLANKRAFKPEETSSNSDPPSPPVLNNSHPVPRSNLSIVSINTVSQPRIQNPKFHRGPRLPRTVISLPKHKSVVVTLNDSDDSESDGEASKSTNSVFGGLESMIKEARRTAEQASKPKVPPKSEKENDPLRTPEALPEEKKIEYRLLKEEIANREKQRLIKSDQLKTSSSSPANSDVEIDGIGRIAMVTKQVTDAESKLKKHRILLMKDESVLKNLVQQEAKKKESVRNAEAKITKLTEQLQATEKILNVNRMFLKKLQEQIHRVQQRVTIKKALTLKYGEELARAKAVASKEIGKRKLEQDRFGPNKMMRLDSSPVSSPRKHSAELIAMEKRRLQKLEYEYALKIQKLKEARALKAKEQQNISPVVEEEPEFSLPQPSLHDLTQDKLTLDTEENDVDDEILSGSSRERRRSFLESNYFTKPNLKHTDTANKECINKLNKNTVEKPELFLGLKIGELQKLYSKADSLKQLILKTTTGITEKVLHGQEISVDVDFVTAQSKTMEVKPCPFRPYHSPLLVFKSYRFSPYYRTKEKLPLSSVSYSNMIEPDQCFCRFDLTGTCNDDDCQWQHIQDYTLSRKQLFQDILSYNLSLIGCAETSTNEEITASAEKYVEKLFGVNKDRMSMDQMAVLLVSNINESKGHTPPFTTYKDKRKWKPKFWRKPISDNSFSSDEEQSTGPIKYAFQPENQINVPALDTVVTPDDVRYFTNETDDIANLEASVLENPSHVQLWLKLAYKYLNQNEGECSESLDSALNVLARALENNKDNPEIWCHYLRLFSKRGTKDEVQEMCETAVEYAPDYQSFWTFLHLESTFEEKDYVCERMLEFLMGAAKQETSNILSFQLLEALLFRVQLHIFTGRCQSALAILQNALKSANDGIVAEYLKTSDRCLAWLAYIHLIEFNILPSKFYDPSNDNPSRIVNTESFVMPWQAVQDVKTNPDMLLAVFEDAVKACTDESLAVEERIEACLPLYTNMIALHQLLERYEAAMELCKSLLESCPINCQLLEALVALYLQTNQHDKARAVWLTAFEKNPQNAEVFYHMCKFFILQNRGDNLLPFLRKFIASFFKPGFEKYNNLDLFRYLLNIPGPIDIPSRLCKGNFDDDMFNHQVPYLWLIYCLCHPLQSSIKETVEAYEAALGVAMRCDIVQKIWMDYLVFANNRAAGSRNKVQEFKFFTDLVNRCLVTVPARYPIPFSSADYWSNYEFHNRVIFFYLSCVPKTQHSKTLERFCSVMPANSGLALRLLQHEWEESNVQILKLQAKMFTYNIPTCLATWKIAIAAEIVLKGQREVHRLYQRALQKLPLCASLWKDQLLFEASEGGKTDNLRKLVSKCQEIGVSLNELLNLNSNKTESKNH
SMILES,day 2/day 0 cell number ratio (MTT cell viability) ([1]; final concentration 1 μM),day 2/day 0 cell number ratio (MTT cell viability) ([1]; final concentration 5 μM),"day 2/day 0 cell number ratio (MTT cell viability) [1, 7]",further results
"CCCCCCc1cc(Cl)c(O)c(C(=O)c2cc(Cl)c(Cl)[nH]2)c1O [CEL-1, celastramycin]",0.83,0.52,1.46,binding to ZFC3H1 [2]: binds to a zinc finger protein ZFC3H1; NF-κB-inhibiting action [3]: inhibit signal transduction in which a transcription factor NF-κB is involved
O=C(c1cc(Cl)c(Cl)[nH]1)c1c(O)ccc(Cl)c1O [CEL-2],1.36,0.87,1.37,
Cc1cc(Cl)c(O)c(C(=O)c2cc(Cl)c(Cl)[nH]2)c1O [CEL-3],0.99,0.81,1.25,"increase in right ventricle/(left ventricle plus septum) weight ratio (RV/[LV+S]) [4, 8]: suppressed; increase in right ventricular systolic pressure (RVSP) [4, 8]: suppressed; body weight after the test ([4]; 3 weeks, Vehicle group 24.2±0.8 g): 23.9 ± 0.7 g; increase in right ventricle/(left ventricle plus septum) weight ratio (RV/[LV+S]) ([5]; vs control group (FIG. 4)): suppressed; increase in right ventricular systolic pressure (RVSP) ([5]; vs control group (FIG. 4)): suppressed; body weight after the test ([5]; Vehicle group 264.91±9.3 g): 260.0 ± 11.1 g"
CCCCc1cc(Cl)c(O)c(C(=O)c2cc(Cl)c(Cl)[nH]2)c1O [CEL-4],0.79,0.53,1.24,
CCCCCc1cc(Cl)c(O)c(C(=O)c2cc(Cl)c(Cl)[nH]2)c1O [CEL-5],0.79,0.53,1.25,
CCCCCCCc1cc(Cl)c(O)c(C(=O)c2cc(Cl)c(Cl)[nH]2)c1O [CEL-6],0.77,0.54,1.23,
CCCCCCCCc1cc(Cl)c(O)c(C(=O)c2cc(Cl)c(Cl)[nH]2)c1O [CEL-7],0.84,0.52,1.27,
CCCCCCCCCCCCc1cc(Cl)c(O)c(C(=O)c2cc(Cl)c(Cl)[nH]2)c1O [CEL-8],0.74,0.47,1.13,
CCCCCCc1cc(C)c(O)c(C(=O)c2cc(Cl)c(Cl)[nH]2)c1O [CEL-10],0.68,0.48,1.16,
CCCCCCc1cc(Cl)c(O)c(C(=O)c2cc(Br)c(Br)[nH]2)c1O [CEL-13],0.72,0.51,1.20,
CCCc1cc(Cl)c(O)c(C(=O)c2ccc(Br)[nH]2)c1O [CEL-14],1.35,0.88,1.37,
CCCCCCc1cc(Br)c(O)c(C(=O)c2cc(Cl)c(Cl)[nH]2)c1O [CEL-15],0.78,0.54,1.26,
CCCCCCc1cc(Cl)c(O)c(C(=O)c2c[nH]c(Cl)c2Cl)c1O [CEL-19],1.24,0.94,1.31,
"O=C(Nc1cc(C(F)(F)F)cc(C(F)(F)F)c1)c1cc(Cl)ccc1O [IMD-0354, N-[3,5-bis(trifluoromethyl)phenyl]-5-chloro-2-hydroxybenzamide, reference compound]",,,,NF-κB-inhibiting action [3]: has an NF-κB-inhibiting action; suppression of proliferation of pulmonary artery smooth muscle cells [6]: suppresses the proliferation of pulmonary artery smooth muscle cells
"Cc1ccc(S(=O)(=O)N[C@@H](Cc2ccccc2)C(=O)CCl)cc1 [N-p-tosyl-L-phenylalanine chloromethyl ketone, reference compound]",,,,suppressive effect on the proliferation of pulmonary artery smooth muscle cells ([1]; final concentration 5 μM): not sufficiently suppressed
"Cc1ccc(S(=O)(=O)N[C@@H](CCCCN)C(=O)CCl)cc1.Cl [Nα-p-tosyl-L-lysine chloromethyl ketone hydrochloride, reference compound]",,,,suppressive effect on the proliferation of pulmonary artery smooth muscle cells ([1]; final concentration 5 μM): not sufficiently suppressed
"O=C(/C=C/c1ccc(O)c(O)c1)OCCc1ccccc1 [caffeic acid phenethyl ester, reference compound]",,,,suppressive effect on the proliferation of pulmonary artery smooth muscle cells ([1]; final concentration 5 μM): not sufficiently suppressed
